Test results taken from patent US20240209456A1, “METHODS AND COMPOSITIONS RELATED TO CELL-CYCLE RNA's” (BETH ISRAEL DEACONESS MEDICAL CENTER, priority 2021, published 2024).
*1 amine or outer side, *2 acyl side, *3 side chain or, on linkers, in order; H or OH if unused. Where a SMILES comes first, the peptide text is derived from it. Bridges are numbered along the chain shown (N, C = ends). Roman numbers before positions name the chains, in order. [ ]: non-standard residue; d: D form. Actinocin(9to1) = Cc1c2oc3c(C)ccc(C(=O)[*:1])c3nc-2c(C(=O)[*:2])c(N)c1=O; NMeV = CN[C@H](C(=O)O)C(C)C; Sar = CNCC(=O)O

Assays:
Assay type in all cases: cell-based, human
c-MYC mRNA = assay: qRT-PCR of c-MYC mRNA; settings: HL-60 released from double thymidine block, 2 hrs; MG149 200 μM, TH1834 500 μM
Procedure: Total RNA isolation was carried out and all RNA samples used in this study were treated with DNase I (10 U of DNase I per 3 μg of total RNA; 37° C. for one hour; in the presence of RNase inhibitor). After DNase I treatment, RNA samples were extracted with acidic phenol (pH 4.3) to eliminate any remaining traces of DNA. cDNA syntheses were performed with Random Primers (Invitrogen) or gene-specific primers with Transcriptor Reverse Transcriptase (Roche Applied Science) according to the manufacturer's recommendation. cDNA was purified with a High Pure PCR Product Purification Kit (Roche Applied Science).
Sybr green reaction was performed using iQ Sybr Green supermix (Biorad, Hercules, CA) using the following parameters: 95° C. (10 min), 40 cycles of 95° C. (15 s) and 60° C. (1 min) 72° C. (1 min). TaqMan analysis was performed using Hotstart Probe One-step qRT-PCR master mix (USB) at the following conditions: 50° C. (10 min.), 95° C. (2 min.), and then 40 cycles of 95° C. (15 sec.) and 60° C. (60 sec.).
Nascent RNA/DNA capture was performed using Click-iT Nascent RNA Capture Kit (ThermoFisher) according to the manufacturer's instructions with minor modifications. Briefly, 1. Labeling the cells with EU/EdU. 200 mM EU or 30 mM EdU stock solutions were added to the cells, to a final concentration 0.5 mM or 30 μM, respectively. 2. Incubation. The cells were incubated for 1 or 2 hours. 3. […]

HL-60 cells = assay: nasRNA-seq, genome wide transcription inhibition upon DRB and ActD treatment; settings: HL-60 released from double thymidine block, 2 hr, DRB 200 μM, ActD 0.8 μM; for average gene expression reduction: vs DMSO
Procedure: Nascent RNA/DNA capture was performed using Click-iT Nascent RNA Capture Kit (ThermoFisher) according to the manufacturer's instructions with minor modifications. Briefly, 1. Labeling the cells with EU/EdU. 200 mM EU or 30 mM EdU stock solutions were added to the cells, to a final concentration 0.5 mM or 30 μM, respectively. 2. Incubation. The cells were incubated for 1 or 2 hours. 3. RNA/DNA isolation. The cells were harvested and the RNA/DNA were isolated and dissolved in 14 μL of H2O. 4. Biotinylation of RNA/DNA by Click reaction. Click-iT reaction cocktail (50 μL per reaction) was prepared accordingly to manufacturer's instructions: a mixture containing 1× Click-iT EU buffer; 2 mM CuSO4; 1 mM Biotin azide; 13.25 μL of the isolated RNA; 10 mM Click-iT reaction buffer additive 1; 12 mM Click-iT reaction buffer additive 2 was prepared. After adding each component, the reaction cocktail was gently mixed by vortexing. The addition of the Click-iT reaction buffer additive 1 stock initiates the click reaction between the EU-RNA/EdU-DNA and biotin azide. Afterwards the Click-iT® reaction buffer additive 2 is added and incubated for 30 minutes with gentle vortexing. 5. RNA/DNA precipitation. 1 μL of ULTRAPURE™ Glycogen, 55 μL of 7 M ammonium acetate, and 750 μL of chilled 100% ethanol were added to the click reaction, incubated at −70° C. for at least 30 minutes and after centrifugation the pellet was dissolved in 125 μL of H2O. 6. Binding biotinylated RNA/DNA to Dynabeads® MYONE™ Streptavidin Ti magnetic beads. The RNA/DNA binding reaction mixture included: 125 μL 2×Click-iT RNA binding buffer; 2 μL Ribonuclease Inhibitor or 2 μL of water for DNA; 125 μL of the isolated biotinylated RNA/DNA. The RNA binding reaction mixture was heated at 68-70° C. for 5 minutes and 50 μL of bead suspension added into the heated RNA binding reaction mixture. The tube containing the RNA/DNA binding reaction was incubated at r.t. for 30 min while gently vortexing to prevent the beads from settling. The beads were immobilized using the magnet and washed 5 times with 500 μL of Click-iT® reaction wash buffer 1 and 5 times with 500 μL of Click-iT® reaction wash buffer 2. Finally, the beads were resuspended in 50 μL of Click-iT reaction wash buffer 2 and the captured RNA immediately processed to cDNA synthesis. The captured DNA was released into 50 μL of boiling water and used in qPCR analyses.
Double Thymidine block (early S-phase block) was carried out as described. […] Synchrony was monitored by flow cytometry analysis of propidium iodide-stained cells using a LSRII flow cytometer (BD Biosciences) at the Harvard Stem Cell Institute/Beth Israel Deaconess Center flow cytometry facility. […]

TIP60 = assay: Western blot of total proteins, TIP60; settings: HL-60, 2 hours treatment, FIG. 10A
Procedure: Whole-cell lysates from approximately 0.2×10^6 cells per each sample were separated on 12% SDS-PAGE gels and transferred to a nitrocellulose membrane. Immunoblots were stained overnight at 4° C. with the following primary antibodies: H2A.Z (1:2,000; Abcam ab4174), H2A.Z acetyl (K4+K7+K11) (1:2,000; Abcam ab18262) or TIP60 (1:1000; generous gift from Bruno Amati). All secondary horseradish peroxidase (HRP)-conjugated antibodies were diluted 1:5,000 and incubated for 1 hr at room temperature with TBST/5% BSA. Immuno-reactive proteins were detected using the Pierce® ECL system (Thermo Scientific #32106).

| Structure (SMILES) | response of total c-MYC mRNA (c-MYC mRNA) | gene expression reduction ratio across distributions (treated/DMSO) (HL-60 cells) | average gene expression reduction (HL-60 cells) | overall global content of TIP60 (TIP60) |
| --- | --- | --- | --- | --- |
| O=C(O)Cn1nnc(-c2ccc(CN(CCCCOc3ccc(CN4CCCC4)cc3)CCc3ccccc3)cc2)n1 [TH1834] | downregulated |  |  |  |
| CCCCCCCc1ccc(CCc2cccc(O)c2C(=O)O)cc1 [MG149] | downregulated |  |  |  |
| OC[C@H]1O[C@@H](n2cnc3cc(Cl)c(Cl)cc32)[C@H](O)[C@@H]1O [DRB, 5,6-Dichlorobenzimidazole 1-β-D-ribofuranoside] |  | 0.45 | 55% | not affected |
| Cc1c2oc3c(C)ccc(C(=O)N[C@@H]4C(=O)N[C@H](C(C)C)C(=O)N5CCC[C@H]5C(=O)N(C)CC(=O)N(C)[C@@H](C(C)C)C(=O)O[C@@H]4C)c3nc-2c(C(=O)N[C@@H]2C(=O)N[C@H](C(C)C)C(=O)N3CCC[C@H]3C(=O)N(C)CC(=O)N(C)[C@@H](C(C)C)C(=O)O[C@@H]2C)c(N)c1=O [ActD, Actinomycin D] (I: T[dV]P[Sar][NMeV] / II: T[dV]P[Sar][NMeV]; ester I:1-I:C, II:1-II:C; linker I:N-II:N via Actinocin(9to1)) |  | 0.21 | 79% | not affected |
